Target: human F508del-CFTR (Homo sapiens, UniProt P13569, DEL508-508)
Assay: F508del-CFTR cell surface expression (corrector activity), DiscoveRx ß-galactosidase complementation chemiluminescence assay in recombinant U2OS cell line;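 also: U2OS cells co-expressing ProLink-tagged F508del-CFTR and a membrane-anchored enzyme acceptor, where more surface CFTR restores β-galactosidase activity measured by chemiluminescence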
Details: for EC50: EC50, F508del-CFTR cell surface expression, U2OS cells, 16h compound incubation, geomean values; for Emax: U2OS, in relation to Emax of corrector lumacaftor (=100%), arithmetic mean values

human F508del-CFTR, sequence (P13569 with tags, fused parts or gaps DEL508-508): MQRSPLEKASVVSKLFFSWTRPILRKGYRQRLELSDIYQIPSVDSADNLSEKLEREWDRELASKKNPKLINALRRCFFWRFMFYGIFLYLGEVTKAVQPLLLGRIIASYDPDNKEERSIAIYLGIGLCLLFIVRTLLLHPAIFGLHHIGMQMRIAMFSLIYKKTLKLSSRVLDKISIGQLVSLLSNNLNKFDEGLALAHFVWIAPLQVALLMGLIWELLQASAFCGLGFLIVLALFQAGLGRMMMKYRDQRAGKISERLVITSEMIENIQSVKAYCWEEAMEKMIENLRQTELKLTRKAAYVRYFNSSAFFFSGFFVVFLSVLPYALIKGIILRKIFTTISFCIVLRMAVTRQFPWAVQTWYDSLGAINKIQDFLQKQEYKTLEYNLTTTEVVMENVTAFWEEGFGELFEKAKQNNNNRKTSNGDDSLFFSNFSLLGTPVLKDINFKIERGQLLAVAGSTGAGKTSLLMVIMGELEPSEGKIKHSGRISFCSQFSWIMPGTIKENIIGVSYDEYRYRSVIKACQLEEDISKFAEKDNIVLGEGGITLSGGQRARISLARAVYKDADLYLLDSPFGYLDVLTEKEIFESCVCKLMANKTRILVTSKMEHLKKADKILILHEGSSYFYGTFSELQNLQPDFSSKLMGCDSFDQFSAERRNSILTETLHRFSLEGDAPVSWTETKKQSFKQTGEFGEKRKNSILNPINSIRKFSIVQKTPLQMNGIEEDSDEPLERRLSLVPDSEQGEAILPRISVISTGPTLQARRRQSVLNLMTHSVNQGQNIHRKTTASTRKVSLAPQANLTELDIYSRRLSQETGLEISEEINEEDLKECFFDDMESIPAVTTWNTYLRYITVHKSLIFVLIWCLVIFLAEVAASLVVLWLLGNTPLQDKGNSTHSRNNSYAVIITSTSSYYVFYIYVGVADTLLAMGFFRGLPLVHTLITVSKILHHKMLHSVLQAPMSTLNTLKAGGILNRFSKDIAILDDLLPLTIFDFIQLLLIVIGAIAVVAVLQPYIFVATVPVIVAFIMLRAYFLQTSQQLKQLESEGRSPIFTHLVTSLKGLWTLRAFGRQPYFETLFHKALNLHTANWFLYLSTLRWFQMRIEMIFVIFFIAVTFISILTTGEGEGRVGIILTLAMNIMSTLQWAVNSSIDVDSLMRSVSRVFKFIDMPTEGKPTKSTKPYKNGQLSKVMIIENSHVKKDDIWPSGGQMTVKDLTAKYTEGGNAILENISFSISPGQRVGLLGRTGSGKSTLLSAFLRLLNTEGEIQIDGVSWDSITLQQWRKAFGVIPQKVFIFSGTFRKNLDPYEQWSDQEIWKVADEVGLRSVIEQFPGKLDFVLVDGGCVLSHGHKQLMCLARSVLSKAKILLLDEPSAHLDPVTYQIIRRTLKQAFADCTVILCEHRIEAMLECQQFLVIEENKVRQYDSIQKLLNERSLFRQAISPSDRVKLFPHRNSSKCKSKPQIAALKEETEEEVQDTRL

Structure (SMILES) | EC50 | Emax
COc1cccc(CCNC(=O)[C@@H]2CC(=O)N(C)[C@@H](CC(C)C)C(=O)N3CCN(S(=O)(=O)c4cccc(OC)c4)C[C@@H]3C(=O)N[C@H](Cc3ccccc3)COc3ccc4ccccc4c3C(=O)N2)c1 [Example 739, (4aR,7R,18S,22S)-7-benzyl-22-isobutyl-N-(3-methoxyphenethyl)-3-((3-methoxyphenyl)sulfonyl)-21-methyl-5,16,20,23-tetraoxo-2,3,4,4a,5,6,7,8,16,17,18,19,20,21,22,23-hexadecahydro-1H-naphtho[1,2-p]pyrazino[2,1-f][1]oxa[4,7,10,14]tetraazacycloheptadecine-18-carboxamide] | 0.101 µM | 297%
COc1cccc(CCNC(=O)[C@@H]2CC(=O)N(C)[C@@H](CC(C)C)C(=O)N3CCN(S(=O)(=O)c4cc(OC)ccc4F)C[C@@H]3C(=O)N[C@H](Cc3ccccc3)COc3ccc4ccccc4c3C(=O)N2)c1 [Example 740, (4aR,7R,18S,22S)-7-benzyl-3-((2-fluoro-5-methoxyphenyl)sulfonyl)-22-isobutyl-N-(3-methoxyphenethyl)-21-methyl-5,16,20,23-tetraoxo-2,3,4,4a,5,6,7,8,16,17,18,19,20,21,22,23-hexadecahydro-1H-naphtho[1,2-p]pyrazino[2,1-f][1]oxa[4,7,10,14]tetraazacycloheptadecine-18-carboxamide] | 0.111 µM | 280%
COc1cccc(CCNC(=O)[C@@H]2CC(=O)N(C)[C@@H](CC(C)C)C(=O)N3CCN(S(=O)(=O)c4ccc5c(c4)OCCN5C)C[C@@H]3C(=O)N[C@H](Cc3ccccc3)COc3ccc4ccccc4c3C(=O)N2)c1 [Example 741, (4aR,7R,18S,22S)-7-benzyl-22-isobutyl-N-(3-methoxyphenethyl)-21-methyl-3-((4-methyl-3,4-dihydro-2H-benzo[b][1,4]oxazin-7-yl)sulfonyl)-5,16,20,23-tetraoxo-2,3,4,4a,5,6,7,8,16,17,18,19,20,21,22,23-hexadecahydro-1H-naphtho[1,2-p]pyrazino[2,1-f][1]oxa[4,7,10,14]tetraazacycloheptadecine-18-carboxamide] | 0.116 µM | 294%
COc1cccc(CCNC(=O)[C@@H]2CC(=O)N(C)[C@@H](CC(C)C)C(=O)N3CCN(S(=O)(=O)c4cccnc4)C[C@@H]3C(=O)N[C@H](Cc3ccccc3)COc3ccc4ccccc4c3C(=O)N2)c1 [Example 742, (4aR,7R,18S,22S)-7-benzyl-22-isobutyl-N-(3-methoxyphenethyl)-21-methyl-5,16,20,23-tetraoxo-3-(pyridin-3-ylsulfonyl)-2,3,4,4a,5,6,7,8,16,17,18,19,20,21,22,23-hexadecahydro-1H-naphtho[1,2-p]pyrazino[2,1-f][1]oxa[4,7,10,14]tetraazacycloheptadecine-18-carboxamide] | 0.214 µM | 246%
COCCCS(=O)(=O)N1CCN2C(=O)[C@H](CC(C)C)N(C)C(=O)C[C@@H](C(=O)NCCc3cccc(OC)c3)NC(=O)c3c(ccc4ccccc34)OC[C@@H](Cc3ccccc3)NC(=O)[C@H]2C1 [Example 743, (4aR,7R,18S,22S)-7-benzyl-22-isobutyl-N-(3-methoxyphenethyl)-3-((3-methoxypropyl)sulfonyl)-21-methyl-5,16,20,23-tetraoxo-2,3,4,4a,5,6,7,8,16,17,18,19,20,21,22,23-hexadecahydro-1H-naphtho[1,2-p]pyrazino[2,1-f][1]oxa[4,7,10,14]tetraazacycloheptadecine-18-carboxamide] | 0.207 µM | 217%
COc1cccc(CCNC(=O)[C@@H]2CC(=O)N(C)[C@@H](CC(C)C)C(=O)N3CCN(S(=O)(=O)c4cncc(OC)c4)C[C@@H]3C(=O)N[C@H](Cc3ccccc3)COc3ccc4ccccc4c3C(=O)N2)c1 [Example 744, (4aR,7R,18S,22S)-7-benzyl-22-isobutyl-N-(3-methoxyphenethyl)-3-((5-methoxypyridin-3-yl)sulfonyl)-21-methyl-5,16,20,23-tetraoxo-2,3,4,4a,5,6,7,8,16,17,18,19,20,21,22,23-hexadecahydro-1H-naphtho[1,2-p]pyrazino[2,1-f][1]oxa[4,7,10,14]tetraazacycloheptadecine-18-carboxamide] | 0.178 µM | 239%
COc1cccc(CCNC(=O)[C@@H]2CC(=O)N(C)[C@@H](CC(C)C)C(=O)N3CCN(S(=O)(=O)CCN4CCOCC4)C[C@@H]3C(=O)N[C@H](Cc3ccccc3)COc3ccc4ccccc4c3C(=O)N2)c1 [Example 745, (4aR,7R,18S,22S)-7-benzyl-22-isobutyl-N-(3-methoxyphenethyl)-21-methyl-3-((2-morpholinoethyl)sulfonyl)-5,16,20,23-tetraoxo-2,3,4,4a,5,6,7,8,16,17,18,19,20,21,22,23-hexadecahydro-1H-naphtho[1,2-p]pyrazino[2,1-f][1]oxa[4,7,10,14]tetraazacycloheptadecine-18-carboxamide] | 0.693 µM | 206%
COc1cccc(CCNC(=O)[C@@H]2CC(=O)N(C)[C@@H](CC(C)C)C(=O)N3CCN(S(=O)(=O)CC4CCOCC4)C[C@@H]3C(=O)N[C@H](Cc3ccccc3)COc3ccc4ccccc4c3C(=O)N2)c1 [Example 746, (4aR,7R,18S,22S)-7-benzyl-22-isobutyl-N-(3-methoxyphenethyl)-21-methyl-5,16,20,23-tetraoxo-3-(((tetrahydro-2H-pyran-4-yl)methyl)sulfonyl)-2,3,4,4a,5,6,7,8,16,17,18,19,20,21,22,23-hexadecahydro-1H-naphtho[1,2-p]pyrazino[2,1-f][1]oxa[4,7,10,14]tetraazacycloheptadecine-18-carboxamide] | 0.211 µM | 213%
COc1cccc(CCNC(=O)[C@@H]2CC(=O)N(C)[C@@H](CC(C)C)C(=O)N3CCN(S(=O)(=O)c4ccccn4)C[C@@H]3C(=O)N[C@H](Cc3ccccc3)COc3ccc4ccccc4c3C(=O)N2)c1 [Example 747, (4aR,7R,18S,22S)-7-benzyl-22-isobutyl-N-(3-methoxyphenethyl)-21-methyl-5,16,20,23-tetraoxo-3-(pyridin-2-ylsulfonyl)-2,3,4,4a,5,6,7,8,16,17,18,19,20,21,22,23-hexadecahydro-1H-naphtho[1,2-p]pyrazino[2,1-f][1]oxa[4,7,10,14]tetraazacycloheptadecine-18-carboxamide] | 0.234 µM | 213%
Cc1cc(CCNC(=O)[C@@H]2CC(=O)N(C)[C@@H](CC(C)C)C(=O)N3CCN(S(=O)(=O)c4ccc5c(c4)OCCN5C)C[C@@H]3C(=O)N[C@H](Cc3ccccc3)COc3cnc4ccccc4c3C(=O)N2)on1 [Example 748, (9S,13S,19aR,22R)-22-benzyl-13-isobutyl-12-methyl-18-((4-methyl-3,4-dihydro-2H-benzo[b][1,4]oxazin-7-yl)sulfonyl)-N-(2-(3-methylisoxazol-5-yl)ethyl)-7,11,14,20-tetraoxo-7,8,9,10,11,12,13,14,17,18,19,19a,20,21,22,23-hexadecahydro-16H-pyrazino[2′,11:6,7][1]oxa[4,7,10,14]tetraazacycloheptadecino[17,16-c]quinoline-9-carboxamide] | 0.529 µM | 295%
Cc1cc(CCNC(=O)[C@@H]2CC(=O)N(C)[C@@H](CC(C)C)C(=O)N3CCN(S(=O)(=O)c4cccc(OC(F)(F)F)c4)C[C@@H]3C(=O)N[C@H](Cc3ccccc3)COc3cnc4ccccc4c3C(=O)N2)on1 [Example 749, (9S,13S,19aR,22R)-22-benzyl-13-isobutyl-12-methyl-N-(2-(3-methylisoxazol-5-yl)ethyl)-7,11,14,20-tetraoxo-18-((3-(trifluoromethoxy)phenyl)sulfonyl)-7,8,9,10,11,12,13,14,17,18,19,19a,20,21,22,23-hexadecahydro-16H-pyrazino[2′,1′:6,7][1]oxa[4,7,10,14]tetraazacycloheptadecino[17,16-c]quinoline-9-carboxamide] | 0.153 µM | 301%
COc1cccc(CCNC(=O)[C@@H]2CC(=O)N(C)[C@@H](CC(C)C)C(=O)N3CCN(C(C)=O)C[C@@H]3C(=O)N[C@H](Cc3ccccc3)COc3ccc4ccccc4c3C(=O)N2)c1 [Example 750, (4aR,7R,18S,22S)-3-Acetyl-7-benzyl-22-isobutyl-N-(3-methoxyphenethyl)-21-methyl-5,16,20,23-tetraoxo-2,3,4,4a,5,6,7,8,16,17,18,19,20,21,22,23-hexadecahydro-1H-naphtho[1,2-p]pyrazino[2,1-f][1]oxa[4,7,10,14]tetraazacycloheptadecine-18-carboxamide] | 0.784 µM | 267%
COc1cccc(CCNC(=O)[C@@H]2CC(=O)N(C)[C@@H](CC(C)C)C(=O)N3CCN(C(=O)CC(C)C)C[C@@H]3C(=O)N[C@H](Cc3ccccc3)COc3ccc4ccccc4c3C(=O)N2)c1 [Example 751, (4aR,7R,18S,22S)-7-benzyl-22-isobutyl-N-(3-methoxyphenethyl)-21-methyl-3-(3-methylbutanoyl)-5,16,20,23-tetraoxo-2,3,4,4a,5,6,7,8,16,17,18,19,20,21,22,23-hexadecahydro-1H-naphtho[1,2-p]pyrazino[2,1-f][1]oxa[4,7,10,14]tetraazacycloheptadecine-18-carboxamide] | 0.217 µM | 213%
COCCC(=O)N1CCN2C(=O)[C@H](CC(C)C)N(C)C(=O)C[C@@H](C(=O)NCCc3cccc(OC)c3)NC(=O)c3c(ccc4ccccc34)OC[C@@H](Cc3ccccc3)NC(=O)[C@H]2C1 [Example 752, (4aR,7R,18S,22S)-7-benzyl-22-isobutyl-N-(3-methoxyphenethyl)-3-(3-methoxypropanoyl)-21-methyl-5,16,20,23-tetraoxo-2,3,4,4a,5,6,7,8,16,17,18,19,20,21,22,23-hexadecahydro-1H-naphtho[1,2-p]pyrazino[2,1-f][1]oxa[4,7,10,14]tetraazacycloheptadecine-18-carboxamide] | 0.706 µM | 200%

— patent US20240208992A1, “MACROCYCLES AS CFTR MODULATORS” (Idorsia Pharmaceuticals Ltd, priority 2021, published 2024)
